In data set [1] the test system is MAO-A. Conditions: Figure 1, cited from earlier work.
Data set [2] has as its system MAO-B. Conditions: cited from earlier work.
The target in data set [3] is T1, acetylcholinesterase (AChE) (Mus musculus, UniProt P21836).
T1 construct: The supernatant obtained was used as a source of enzyme for; from tissue; host or cells: whole brain of male ICR mice, supernatant of the homogenate
T1 sequence (P21836 32-614): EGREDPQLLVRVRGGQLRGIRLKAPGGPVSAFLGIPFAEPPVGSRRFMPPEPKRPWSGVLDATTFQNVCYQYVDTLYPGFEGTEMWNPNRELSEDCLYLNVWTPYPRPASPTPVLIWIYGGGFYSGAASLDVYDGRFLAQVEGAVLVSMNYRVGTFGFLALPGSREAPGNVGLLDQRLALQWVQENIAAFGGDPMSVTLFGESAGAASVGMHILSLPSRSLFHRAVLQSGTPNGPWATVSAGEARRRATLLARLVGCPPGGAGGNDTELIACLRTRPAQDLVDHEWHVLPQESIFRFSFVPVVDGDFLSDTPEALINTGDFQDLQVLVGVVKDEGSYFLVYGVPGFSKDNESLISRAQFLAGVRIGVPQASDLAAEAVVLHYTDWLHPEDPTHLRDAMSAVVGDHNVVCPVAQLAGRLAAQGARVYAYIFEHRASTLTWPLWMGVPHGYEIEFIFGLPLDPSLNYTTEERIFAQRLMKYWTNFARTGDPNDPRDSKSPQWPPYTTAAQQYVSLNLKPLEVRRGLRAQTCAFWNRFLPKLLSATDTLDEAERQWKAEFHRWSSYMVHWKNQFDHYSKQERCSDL
Nature of the data set: Acetylcholinesterase inhibition assay (Ellman, mouse whole brain homogenate). It counts as biochemical. To be noted: for IC50: ±SD. As to the method: (§1) of compounds were determined as the mean ± S.E.M. in triplicate from the dose-response inhibition curves using SigmaPlot® 13.0.
2.2. In vitro acetylcholinesterase inhibition assay
(Eyela, Japan) containing 50 volumes of phosphate buffer (pH 8.0, 0.1 M), and then centrifuged at 14,000 rpm for 20 min at 4 °C. The supernatant obtained was used as a source of enzyme for the assay. Each drug was initially dissolved in dimethyl sulfoxide (DMSO) and diluted to various concentrations immediately before use. An aliquot of diluted drug solution was then mixed wit h 640 μL of phosphate buffer (0.1 M, pH 8.0), 25 μL of buffered Ellman’s reagent (10 mM 5,5′- dithio-bis(2-nitrobenzoic acid) and 15 mM sodium bicarbonate), and the enzyme source (100 μL) and pre-incubated at room temperature for 10 min. Then 5 μL of acetylthiocholine iodide solution (75 mM) was added to this mixture and mixed. Absorbance was measured at 410 nm after 10 min for the reaction adding 5 μL of acetylthiocholine iodide solution (75 mM) and to the reaction mixtures (OPTIZEN 2120UV, Mecasys Co. Ltd, Korea).
On the technique in general: Ellman's reagent forms a yellow product with free thiols.

In data set [4] the target is T2, recombinant human MAO-B (Homo sapiens, UniProt P27338).
T2 construct: purchased Sigma Aldrich
T2 sequence (P27338 1-520): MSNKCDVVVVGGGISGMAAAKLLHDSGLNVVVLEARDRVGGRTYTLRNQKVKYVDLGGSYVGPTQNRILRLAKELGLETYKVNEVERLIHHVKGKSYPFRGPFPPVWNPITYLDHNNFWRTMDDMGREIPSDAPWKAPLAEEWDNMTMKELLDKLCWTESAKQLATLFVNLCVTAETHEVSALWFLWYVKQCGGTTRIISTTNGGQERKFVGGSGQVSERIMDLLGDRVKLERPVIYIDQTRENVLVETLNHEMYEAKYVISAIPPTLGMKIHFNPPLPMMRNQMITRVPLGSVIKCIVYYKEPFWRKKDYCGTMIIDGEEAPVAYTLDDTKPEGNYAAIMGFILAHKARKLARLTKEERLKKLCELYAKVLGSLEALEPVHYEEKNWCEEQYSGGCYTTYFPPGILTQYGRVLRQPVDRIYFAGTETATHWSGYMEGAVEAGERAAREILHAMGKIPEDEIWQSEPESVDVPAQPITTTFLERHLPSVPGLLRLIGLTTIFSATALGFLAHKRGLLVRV
Nature of the data set: biochemical. To be noted: for MAO-B Selectivity Index: calculated from MAO-A and MAO-B IC50 values; for inhibition at 10 µM: single dose concentration of 10 µM; for inhibition at 10 µM / IC50: ±sem; for IC50: five doses.

For data set [5], the target named is T3, recombinant human MAO-A (Homo sapiens, UniProt P21397).
T3 sequence (P21397 1-527): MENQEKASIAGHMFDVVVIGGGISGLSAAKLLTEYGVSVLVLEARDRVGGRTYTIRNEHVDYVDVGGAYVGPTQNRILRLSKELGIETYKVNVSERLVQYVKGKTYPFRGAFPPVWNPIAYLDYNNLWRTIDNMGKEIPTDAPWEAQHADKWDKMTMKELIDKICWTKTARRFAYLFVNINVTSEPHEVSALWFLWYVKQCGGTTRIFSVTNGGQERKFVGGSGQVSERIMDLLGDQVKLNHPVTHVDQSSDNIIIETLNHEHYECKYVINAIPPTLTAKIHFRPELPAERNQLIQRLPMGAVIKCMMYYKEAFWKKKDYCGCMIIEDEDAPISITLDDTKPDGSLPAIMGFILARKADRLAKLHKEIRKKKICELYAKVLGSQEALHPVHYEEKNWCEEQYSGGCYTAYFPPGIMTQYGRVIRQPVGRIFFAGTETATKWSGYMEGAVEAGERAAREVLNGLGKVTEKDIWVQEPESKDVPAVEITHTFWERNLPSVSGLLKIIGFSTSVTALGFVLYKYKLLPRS
Briefly: Monoamine oxidase-A inhibition assay (Amplex red fluorescence). Conditions: for inhibition at 1 µM: read-out: % Inhibition MAO-A; for inhibition at 100 µM: read-out: MAO-A % Inhibition. Format: biochemical. As to the method: Two isoforms of MAOs, namely MAO-A and MAO-B, are expressed in CNS, showing different substrate specificity. Consequently, different pharmacological effects can be elicited depending on the inhibited MAO isoform. Therefore, the prepared O^6-aminoalkyl-hispidol analogs were evaluated against both recombinant human MAO-A and MAO-B isoforms following the well-established spectrophotometric method.
2. Biological evaluations
2.1. In vitro assay of human monoamine oxidases inhibition
The MAO activity was quantified by measuring fluorescence intensity evoked by Amplex red reaction in which Amplex red reacts with hydrogen peroxide from the MAO reaction to produce highly fluorescent resorufin. The test compound in DMSO (final concentration: 1 nM – 10 μM or 10 nM – 100 μM ) and hMAO enzyme (Sigma Aldrich, St. Louis, MO, USA) in 50 mM sodium phosphate buffer (pH 7.4, final protein amount: ~1.25 μg of MAO-A/well and 2.5 μg of MAO-B/well) were loaded on 96-well black plate and incubated for 15 min at 37 °C. Then working solution of 200 μM Amplex Red (Cayman, Ann Arbor, MI, USA), 1 U/mL horseradish peroxidase (Sigma-Aldrich) and 1 mM substrate (p-tyramine for MAO-A, benzylamine for MAO-B, Sigma-Aldrich) in 50 mM sodium phosphate buffer (pH 7.4) was added and incubated for 20 min at 37 °C in the dark. The fluorescence was measured using a microplate reader (SpectraMax®i3, Molecular Device, San Jose, CA, USA) with an excitation at 545 nm and an emission at 590 nm. […]
as §1

The test system of data set [6] is scopolamine-induced cognitive deficits. Briefly: Passive avoidance test, scopolamine-induced cognitive deficits. Conditions: scopolamine 1 mg/kg i.p., mice. It counts as in vivo.
Data set [7] concerns PGE2 production in LPS-induced BV2 cells. Nature of the data set: Inhibition of LPS-induced production of PGE2 in BV2 cells. Format: cell-based, murine. To be noted: LPS 500 ng/ml. As to the method:
indicated concentrations of test compounds for 24 h. After replacing the culture media with fresh
2.3.2. Inhibition of LPS-induced production of PGE2
The concentrations of PGE2 in
Sciences, NY, USA) according to the manufacturer’s instructions. […]

Data set [8] has as its system immobility in forced swim test. Nature of the data set: Forced swim test, acute treatment. To be noted: 1 and 10 mg/kg p.o.; for Immobility time in forced-swim test: versus control group.
For data set [9], the system named is AChE. The arrangement: method as in PMID 31891098. To be noted: chromone-based compound 1, Figure 1; cited from earlier work.
Data set [10] concerns microglial BV2 cells. Briefly: BV2 cell viability (WST-1 assay). Conditions: up to 10 micromolar, in presence of LPS, 24 h. As to the method:
2.3. In vitro cellular evaluations
2.3.1. Cell culture and viability determination
Murine BV2 microglial cells obtained from the Korean Cell Line Bank (Seoul, Republic of Korea) were cultured in DMEM with 10% FBS, 100 U/ml penicillin, and 100 μg/ml streptomycin at 37°C in a humidified 5% CO2 atmosphere. Cell viability and toxicity were determined by the WST-1 assay (Roche, Mannheim, Germany). Briefly, BV2 cells in sterile plates were incubated with the […]
(Tetrazolium assays rely on reduction of a dye to a coloured formazan, in cell work by metabolically active cells.)

[11] abbreviates: single dose concentration of 1 µM, ±sem, NI = no measured inhibition.
[12] abbreviates: single dose concentration of 100 µM, ±sem.
[13] abbreviates: 10 mg/kg p.o., donepezil 5 mg/kg p.o. as comparator.

The values below come from publication PMC10215199 (Antioxidants, 2023).

“Also recorded” adds a separate entry of the source. Like-named read-outs stand apart in the source and are kept apart here.

In general, IC50 refers to the concentration that inhibits the measured activity by half. A word on the inhibition: it is the relative decrease from the control value, in per cent.

`O=C1/C(=C/c2ccc(O)cc2)Oc2cc(O)ccc21` [Hispidol, hispidol]: the IC50 in data set [1] (reported value for hispidol) was 260 nM; in data set [2] (reported value for hispidol), 2450 nM; in [3], 202000 nM.

As for `COc1ccc(/C=C2\Oc3cc(OCCCCN4CCCC4)ccc3C2=O)cc1` [Compound 3al], in [4], the “MAO-B Selectivity Index” value is on record as more than 12, the inhibition at 10 µM was determined as 49.8 ± 0.02% and the IC50 came to 8650 ± 196 nM. In addition, in data set [5] (setting [11]), the inhibition at 1 µM is less than 0%. Further, the “MAO-A % Inhibition” value in [5] (single dose concentration of 100 µM, ±sem, 100 µM) turned out to be 14.89 ± 3.46%. Also, in data set [5] (setting [12]), the inhibition at 100 µM was approximately 15%. In addition, the IC50 in [5] (±sem, read-out: MAO-A IC50) was more than 100 µM. Moreover, in [3], the IC50 was 1420 ± 90 nM.

As to `COc1ccc(/C=C2\Oc3cc(O)ccc3C2=O)c(OC)c1OC` [Hispidol Analog], the IC50 in data set [1] (ring-B methoxylated hispidol analog) is more than 100000 nM; in data set [2] (ring-B methoxylated hispidol analog, Figure 1) it was 170 nM.

As for `CCN(CC)CCOc1ccc2c(c1)O/C(=C\c1ccccc1OC)C2=O` [Compound 3aa], the “MAO-B Selectivity Index” value in [4] is given as more than 104. The inhibition at 10 µM in [4] was found to be 91.49 ± 0.27%. Also, the IC50 in data set [4] is 960 ± 4 nM; in data set [5] (±sem, read-out: MAO-A IC50), more than 100 µM; in data set [3] it was 2670 ± 50 nM. Also, in data set [5] (setting [11]), the inhibition at 1 µM was less than 0%. The inhibition at 100 µM in [5] (setting [12]) came to 27.2 ± 2.94%. Besides, the “Latency in the retention experiment, passive avoidance” value (“Latency in the retention experiment” below) in data set [6] (1 mg/kg p.o.) and in data set [6] (setting [13]) was “did not show significant amelioration of cognitive deficits” each time. Also, the “AChE potency relative to the reference galantamine” value in data set [3] (ratio of potency) is listed as approximately 1.8 times. The “LPS-induced PGE2 production in BV2 cells” value is listed as “returned to almost normal levels” in [7] (10 micromolar dose) and “attrition of the inhibitory effect” in data set [7] (five micromolar concentration). In addition, the “Antidepressant-like effect in forced-swim test” value in [8] was “did not show antidepressant-like effects”. In [8], the “Immobility time in forced-swim test” value is reported as “significantly increased immobility time”.

Regarding `O=c1ccoc2ccc(OCCCN3CCCCC3)cc12` [Compound 1], the IC50 in data set [9] is 5.58 µM; in [2] (chromone-based compound 1, Figure 1) it was 7200 nM.

For `COc1cc(/C=C2\Oc3cc(OCCN4CCCC4)ccc3C2=O)cc(OC)c1OC` [Compound 3bc], in [4], the inhibition at 10 µM is 99.3 ± 0.38% and the IC50 was 340 ± 2 nM. Besides, in [5], the IC50 was more than 100 µM, the inhibition at 1 µM was less than 0% and the inhibition at 100 µM turned out to be 21.4 ± 3.51%. The “Latency in the retention experiment” value in data set [6] (1 mg/kg p.o.) was “significantly enhanced latency”. Also, in [6] (setting [13]), the “Latency in the retention experiment” value was “significantly enhanced latency; also recorded: as effective as donepezil”. Further, the “Cellular viability of microglial BV2 cells” value in [10] is recorded as “absence of cytotoxic activity”. Further, the “LPS-induced PGE2 production in BV2 cells” value in data set [7] (10 micromolar dose) was “returned to almost normal levels”. In data set [7] (five micromolar concentration), the “LPS-induced PGE2 production in BV2 cells” value is given as “normal PGE2 production level”. In data set [8], the “Antidepressant-like effect in forced-swim test” value was “did not show antidepressant-like effects” and the “Immobility time in forced-swim test” value is “significantly increased immobility time”.
